Test results: patent US10294202B2, “Pyrrolidinones as herbicides” (FMC Corporation, priority 2013, dated 2019)

Columns and labels:
wheat = assay: Test A pre-/postemergence herbicide test; type: in vivo, Triticum aestivum; conditions: for Wheat plant response rating: Preemergence, visual rating on 0 to 100 scale (0 no effect, 100 complete control)
In short: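 Planted in loam–sand blend; treated the same day preemergence by directed soil spray, while separately grown plants at one- to two-leaf stage got postemergence spray. Compared visually with untreated controls after approximately 10 days; 100 means complete control.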

crabgrass, large = assay: Test C pre-/postemergence herbicide test; type: in vivo, Digitaria sanguinalis; conditions: Preemergence
Text: (§1) Seeds of plant species selected from blackgrass (Alopecurus myosuroides), ryegrass, Italian (Italian ryegrass, Lolium multiflorum), wheat (winter wheat, Triticum aestivum), galium (catchweed bedstraw, Galium aparine), corn (Zea mays), crabgrass, large (large crabgrass, Digitaria sanguinalis), foxtail, giant (giant foxtail, Setaria faberii), johnsongrass (Sorghum halepense), lambsquarters (Chenopodium album), morningglory (Ipomoea coccinea), nutsedge, yellow (yellow nutsedge, Cyperus esculentus), pigweed (Amaranthus retroflexus), ragweed (common ragweed, Ambrosia elatior), soybean (Glycine max), barnyardgrass (Echinochloa crus-galli), oilseed rape (Brassica napus), waterhemp (common waterhemp, Amaranthus rudis), kochia (Kochia scoparia), oat, wild (wild oat, Avena fatua), surinam grass (Brachiaria decumbens), foxtail, green (green foxtail, Setaria viridis), goosegrass (Eleusine indica), bromegrass, downy (downy bromegrass, Bromus tectorum), nightshade (eastern black nightshade, Solanum ptycanthum), cocklebur (common cocklebur, Xanthium strumarium), cupgrass, woolly (woolly cupgrass, Eriochloa villosa), bermudagrass (Cynodon dactylon), sunflower, (common oilseed sunflower, Helianthus annuus), Russian thistle (Salsola kali) and velvetleaf (Abutilon theophrasti) were planted into a blend of loam soil and sand and treated preemergence with test chemicals formulated in a non-phytotoxic solvent mixture which included a surfactant. At the same time, plants selected from these crop and weed species and also barley (winter barley, Hordeum vulgare), […]), chickweed (common chickweed, Stellaria media), deadnettle (henbit deadnettle, Lamium amplexicaule), and canarygrass (littleseed canarygrass, Phalaris minor) were planted in pots containing Redi-Earth® planting medium (Scotts Company, 14111 Scottslawn Road, Marysville, Ohio 43041) comprising spaghnum peat moss, vermiculite, wetting agent and starter nutrients and treated with postemergence applications of test chemicals formulated in the same manner. Plants ranged in height from 2 to 18 cm (1- to 4-leaf stage) for postemergence treatments. Treated plants and controls were maintained in a greenhouse for 13 to 15 days, after which time all species were compared to controls and visually evaluated. Plant response ratings, summarized in Table C, are based on a scale of 0 to 100 where 0 is no effect and 100 is complete control. A dash (-) response means no test result.

velvetleaf = assay: Test C pre-/postemergence herbicide test; type: in vivo, Abutilon theophrasti; conditions: Preemergence
Text: as §1

pigweed = assay: Test C pre-/postemergence herbicide test; type: in vivo, Amaranthus retroflexus; conditions: Preemergence
Text: as §1

blackgrass = assay: Test C pre-/postemergence herbicide test; type: in vivo, Alopecurus myosuroides; conditions: Preemergence; for Blackgrass plant response rating: 31 g ai/ha
Text: as §1

johnsongrass = assay: Test C pre-/postemergence herbicide test; type: in vivo, Sorghum halepense; conditions: Preemergence
Text: as §1

wheat (winter wheat) = assay: Test C pre-/postemergence herbicide test; type: in vivo, Triticum aestivum; conditions: Preemergence
Text: as §1

ragweed = assay: Test C pre-/postemergence herbicide test; type: in vivo, Ambrosia elatior; conditions: Preemergence
Text: as §1

oilseed rape = assay: Test C pre-/postemergence herbicide test; type: in vivo, Brassica napus; conditions: Preemergence
Text: as §1

[1] = Postemergence, 500 g ai/ha, 0 to 100 scale (0 no effect, 100 complete control)
[2] = preemergence, 500 g ai/ha, 0 to 100 scale
[3] = Postemergence, 125 g ai/ha, 0 to 100 scale, 0 no effect, 100 complete control
[4] = 125 g ai/ha, scale 0 to 100 (0 no effect, 100 complete control)
[5] = 31 g ai/ha, scale 0 to 100, 0 is no effect and 100 is complete control
[6] = 62 g ai/ha, scale 0 to 100 (0 no effect, 100 complete control)

## O=C1NCC(c2cccc(C(F)(F)F)c2)C1C(=O)Nc1ccccc1F (racemic) [Compound 3]
wheat; [1]
  Plant response rating, Wheat: 50
wheat; 125 g ai/ha
  Wheat plant response rating: 40
wheat; [2]
  Plant response rating, Wheat: 60

## O=C1NCC(c2ccc(F)c(F)c2)C1C(=O)Nc1cccc(F)c1 (racemic) [Compound 12]
wheat; [3]
  Plant response rating, Wheat: 0
wheat; [1]
  Plant response rating, Wheat: 20
wheat; 125 g ai/ha
  Wheat plant response rating: 0
wheat; [2]
  Plant response rating, Wheat: 20

## O=C1NCC(c2ccc(F)cc2)C1C(=O)Nc1ccccc1F (racemic) [Compound 16]
crabgrass, large; 31 g ai/ha, scale 0 to 100 (0 no effect, 100 complete control)
  Crabgrass, Large plant response rating: 95
crabgrass, large; 62 g ai/ha, scale 0 to 100
  Plant response rating, Crabgrass, Large: 95
crabgrass, large; [4]
  Plant response rating, Crabgrass, Large: 100
crabgrass, large; 250 g ai/ha, scale 0 to 100 (0 no effect, 100 complete control)
  Plant response rating, Crabgrass, Large: 100
velvetleaf; 62 g ai/ha, scale 0 to 100
  Plant response rating, Velvetleaf: 0
velvetleaf; [4]
  Plant response rating, Velvetleaf: 0
pigweed; 62 g ai/ha, scale 0 to 100
  Plant response rating, Pigweed: 0
pigweed; [4]
  Plant response rating, Pigweed: 0
blackgrass; scale 0 to 100 (0 no effect, 100 complete control)
  Blackgrass plant response rating: 0
blackgrass; 62 g ai/ha, scale 0 to 100
  Plant response rating, Blackgrass: 5
blackgrass; [4]
  Plant response rating, Blackgrass: 10
johnsongrass; 62 g ai/ha, scale 0 to 100
  Plant response rating, Johnsongrass: 0
johnsongrass; [4]
  Plant response rating, Johnsongrass: 0
Wheat (winter wheat); 62 g ai/ha, scale 0 to 100
  Plant response rating, Wheat: 0
Wheat (winter wheat); [4]
  Plant response rating, Wheat: 0
ragweed; 62 g ai/ha, scale 0 to 100
  Plant response rating, Ragweed: 0
ragweed; [4]
  Plant response rating, Ragweed: 0
wheat; [3]
  Plant response rating, Wheat: 20
wheat; [1]
  Plant response rating, Wheat: 50
wheat; 125 g ai/ha
  Wheat plant response rating: 0
wheat; [2]
  Plant response rating, Wheat: 0

## O=C1NCC(c2cccc(C(F)(F)F)c2)C1C(=O)Nc1ccccc1Cl (racemic) [Compound 189]
crabgrass, large; [5]
  Crabgrass, Large plant response rating: 95
crabgrass, large; [6]
  Crabgrass, Large plant response rating: 95
crabgrass, large; [4]
  Plant response rating, Crabgrass, Large: 98
crabgrass, large; 16 g ai/ha, scale 0 to 100
  Plant response rating, Crabgrass, Large: 90
velvetleaf; [5]
  Velvetleaf plant response rating: 0
velvetleaf; [6]
  Velvetleaf plant response rating: 0
velvetleaf; [4]
  Plant response rating, Velvetleaf: 0
velvetleaf; 16 g ai/ha, scale 0 to 100
  Plant response rating, Velvetleaf: 0
pigweed; [5]
  Pigweed plant response rating: 0
pigweed; [6]
  Pigweed plant response rating: 0
pigweed; [4]
  Plant response rating, Pigweed: 0
pigweed; 16 g ai/ha, scale 0 to 100
  Plant response rating, Pigweed: 0
blackgrass; scale 0 to 100, 0 is no effect and 100 is complete control
  Blackgrass plant response rating: 10
blackgrass; 62 g ai/ha, scale 0 to 100
  Plant response rating, Blackgrass: 50
blackgrass; [4]
  Plant response rating, Blackgrass: 55
blackgrass; 16 g ai/ha, scale 0 to 100
  Plant response rating, Blackgrass: 0
johnsongrass; [5]
  Johnsongrass plant response rating: 0
johnsongrass; [6]
  Johnsongrass plant response rating: 0
johnsongrass; [4]
  Plant response rating, Johnsongrass: 15
johnsongrass; 16 g ai/ha, scale 0 to 100
  Plant response rating, Johnsongrass: 0
Wheat (winter wheat); [5]
  Wheat plant response rating: 0
Wheat (winter wheat); [6]
  Wheat plant response rating: 0
Wheat (winter wheat); [4]
  Plant response rating, Wheat: 0
Wheat (winter wheat); 16 g ai/ha, scale 0 to 100
  Plant response rating, Wheat: 0
ragweed; [5]
  Ragweed plant response rating: 0
ragweed; [6]
  Ragweed plant response rating: 0
ragweed; [4]
  Plant response rating, Ragweed: 0
ragweed; 16 g ai/ha, scale 0 to 100
  Plant response rating, Ragweed: 0
Oilseed rape; [5]
  Oilseed Rape plant response rating: 0
Oilseed rape; [6]
  Oilseed Rape plant response rating: 0
Oilseed rape; [4]
  Plant response rating, Oilseed Rape: 20
Oilseed rape; 16 g ai/ha, scale 0 to 100
  Plant response rating, Oilseed Rape: 0
wheat; 125 g ai/ha, visual rating, 0 to 100 scale, 0 no effect, 100 complete control, approximately 10 days, preemergence
  Plant response rating, Wheat: 0
wheat; Postemergence, 125 g ai/ha, 0 to 100 scale, 0 is no effect, 100 is complete control
  Plant response rating, Wheat: 0
wheat; Postemergence, 500 g ai/ha
  Wheat plant response rating (0 to 100 scale, 0 is no effect, 100 is complete control): 0
wheat; preemergence, 500 g ai/ha, 0 to 100 scale, 0 is no effect and 100 is complete control
  Plant response rating, Wheat: 20
